Measurements: patent US20050136491A1, “Method of site specific labeling of proteins and uses therefor” (SmithKline Beecham Corporation, priority 1999, published 2005)
Square brackets hold non-standard residues; d marks the D form. Peptide text beside a SMILES is read from it. * marks the point of attachment. Tyr(3-NO2) = N[C@@H](Cc1ccc(O)c([N+](=O)[O-])c1)C(=O)O; Biotin = O=C1N[C@H]2[C@H](CS[C@H]2CCCCC(=O)*)N1

How the values were obtained:
Factor XIII = molecular target: T1, Factor XIII (Homo sapiens, UniProt P00488); test: Factor XIII-mediated labeling of N-terminal Peptide 1-ACP fusion (N-tagged ACP); type: biochemical; settings: analysed by N-terminal sequencing and mass mapping
T1 construct: purchased Enzyme Research Laboratories
T1 sequence (P00488 39-732 limits assumed): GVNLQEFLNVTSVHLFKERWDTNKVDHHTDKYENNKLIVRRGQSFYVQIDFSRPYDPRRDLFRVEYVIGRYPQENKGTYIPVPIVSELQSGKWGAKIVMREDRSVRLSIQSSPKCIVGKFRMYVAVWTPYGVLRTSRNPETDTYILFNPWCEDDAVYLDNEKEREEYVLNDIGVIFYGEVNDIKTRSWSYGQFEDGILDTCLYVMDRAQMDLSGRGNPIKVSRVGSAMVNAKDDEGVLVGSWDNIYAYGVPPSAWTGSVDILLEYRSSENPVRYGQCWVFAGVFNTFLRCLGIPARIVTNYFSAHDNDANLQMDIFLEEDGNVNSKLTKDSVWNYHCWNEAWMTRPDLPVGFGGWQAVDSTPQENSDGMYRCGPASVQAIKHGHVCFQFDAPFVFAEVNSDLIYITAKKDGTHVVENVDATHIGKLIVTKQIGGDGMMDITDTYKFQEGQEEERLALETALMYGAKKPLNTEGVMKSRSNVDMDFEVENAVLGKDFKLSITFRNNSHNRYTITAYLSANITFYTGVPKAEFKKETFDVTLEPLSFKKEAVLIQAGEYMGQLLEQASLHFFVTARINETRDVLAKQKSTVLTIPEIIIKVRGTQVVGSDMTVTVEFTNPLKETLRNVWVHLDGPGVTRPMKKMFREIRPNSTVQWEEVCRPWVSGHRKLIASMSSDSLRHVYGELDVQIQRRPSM

Factor XIIIa = molecular target: T2, Factor XIIIa (Homo sapiens, UniProt P00488); test: Factor XIII(a)-mediated labeling of ACP-Peptide 1 C-terminal fusion (C-tagged ACP); type: biochemical; settings: for incorporation into ACP-Peptide 1 fusion: Mono Q ion exchange, 22 hr
T2 construct: purchased Enzyme Research Laboratories
T2 sequence (P00488 39-732 limits assumed): T1 sequence (P00488 39-732 limits assumed)
Protocol: A 270 units/ml reaction of Factor XIII was activated by 42 units/ml immobilized thrombin in Buffer 1:40 mM Tris-HCl, pH 8.3, 0.15 M NaCl. Cadaverine derivatives (rhodamine green and biotin) were used at 0.5 mM for each labeling reaction. The labeling reaction also contained 6 mM of DTT and 5 mM CaCl2. 0.5 mg/ml tagged ACP was used in the labeling reactions, against a 0.5 mg/ml native ACP control sample. Incubations were carried out at room temperature. Aliquots were taken from the mixtures at different time points and 50 mM EDTA was used to stop the labeling reaction (Factor XIII being Ca^2+ dependent). NuPAGE Tris-Glycine gels (4-12%) [Novex] were used to analyze the labeling results. The rhodamine green cadaverine labeling gel was observed under UV translumination, while the biotin cadaverine labeled protein was analyzed by Western blotting/streptavidin-HRP detection. […] No label was incorporated into the native ACP control under the conditions described above.
The ACP-peptide 1 C-terminal fusion was labeled with biotin cadaverine (Molecular Probes) in a reaction mixture of 0.5 mg/ml ACP-Peptide 1 fusion, 1.5 mM biotin-cadaverine and 504 units/ml Factor XIIIa. The efficiency of incorporation was determined by competitive ELISA to be 56%.
Novel biotinylation reagents (i.e. labeling compounds) were tested in an attempt to increase the yield. To this end, two biotinylated dipeptides, Biotin-Trp-Lys-OH and Biotin-NitroTyr-Lys-OH, were evaluated in a reaction mixture of 0.5 mg/ml ACP-Peptide 1 fusion, 1.5 mM biotin-cadaverine and 504 units/ml Factor XIIIa. Incorporation of the Biotin-Trp-Lys-OH dipeptide was shown by Mono Q ion exchange to be >85% (FIG. 2), in comparison to a 55% incorporation of the Biotin-NitroTyr-Lys dipeptide (FIG. 1). […] provides the C-tagged ACP standard. The identity of the modified peak was confirmed by addition of unmodified ACP at the end of the reaction (FIG. 4).

[1] = 0.5 mg/ml fusion, 504 units/ml Factor XIIIa

For `CN(C)c1cccc2c(S(=O)(=O)NCCCCCN)cccc12` [dansyl cadaverine], the “labeling efficiency of N-terminal Peptide 1-ACP fusion” value (Factor XIII) was “greater than 90%”.

In the case of biotin cadaverine, the “efficiency of incorporation into ACP-Peptide 1 C-terminal fusion” value (Factor XIIIa; competitive ELISA, 0.5 mg/ml fusion, 1.5 mM label, 504 units/ml Factor XIIIa) is reported as 56%.

In the case of `NCCCC[C@H](NC(=O)[C@H](Cc1ccc(O)c([N+](=O)[O-])c1)NC(=O)CCCC[C@@H]1SC[C@@H]2NC(=O)N[C@@H]21)C(=O)O` [Biotin-NitroTyr-Lys, Biotin-NitroTyr-Lys-OH] (Biotin-[Tyr(3-NO2)]-Lys-OH), the “incorporation into ACP-Peptide 1 fusion” value (Factor XIIIa; [1]) is reported as 55%.

With rhodamine green cadaverine the “efficiency of labeling of the ACP-Peptide 1 C-terminal fusion” value (Factor XIIIa) was “greater than 90%” and the “extent of labeling of C-tagged ACP” value (Factor XIIIa; non-optimized reaction, estimated by high-resolution ion exchange) was “greater than 85%”.

With `NCCCC[C@H](NC(=O)[C@H](Cc1c[nH]c2ccccc12)NC(=O)CCCC[C@@H]1SC[C@@H]2NC(=O)N[C@@H]21)C(=O)O` [Biotin-Trp-Lys-OH] (Biotin-Trp-Lys-OH) the “incorporation into ACP-Peptide 1 fusion” value (Factor XIIIa; [1]) was over 85%.
